{
  "source": "patent US20140325707A1",
  "about": "“GROWTH ENHANCEMENT OF PLANTS” (Yissum Research Development Company of the Hebrew …, priority 2011, published 2014)",
  "key": {"[1]": {"tested_on": "tomato (Solanum lycopersicum) cv Moneymaker", "assay": "Growth assay of tomato seedlings from seeds primed with IR-PRN", "format": "in vivo", "description": "Seeds of tomato (Solanum lycopersicum) cv Moneymaker were primed with a priming solution containing 25% PEG without (control) or with IR-PRN.\nThe seeds were sown in randomly placed small tagged pots containing potting mixture, in a glasshouse at a night and day temperature of 15-18° C. and 22-27° C., respectively. Plant height, weight and dry weight were measured when the plant reached 3-5 true leaves. Typically the seedlings were 4-5 weeks old."}, "R. solani": {"tested_on": "R. solani", "assay": "Assay for R. solani resistance (damping-off disease) of tomato plants", "format": "in vivo", "settings": "control plants wilted within 2 weeks", "description": "Roots of tomato (Solanum lycopersicum) seedlings were immersed in a water solution of IL-60-BS and IR-PRN or IR-PRN-GFP (1 μg/plantlet) until the entire solution was sucked up by the plants. The plants were then potted and kept in the greenhouse at 24° C. Tomato seedlings, 2 weeks after application of IL-60-BS and IR-PRN, were transferred to pots with 0.5 kg of soil mixed with 0.5 g of R. solani mycelium. Control plants (not carrying PRN) were similarly treated. Plants were kept for 2 to 3 weeks at 24° C. until symptom appearance."}, "Rhizoctonia solani": {"tested_on": "Rhizoctonia solani", "assay": "Bioassay for inhibition of Rhizoctonia solani in vitro", "format": "cell-based", "settings": "plant-extracted, HPLC-purified PRN; 28° C., 3 days", "description": "R. solani was cultured on potato dextrose agar at 28° C. A disk (30 mm in diameter) of R. solani-containing agar was transferred to another Petri dish containing potato dextrose agar and 10 μl of HPLC elution buffer (negative control), 10 μl of various plant extracts, or 10 μl containing 0.2 mg of synthetic PRN in elution buffer (Sigma, positive control). Inhibition of fungal growth was determined after incubation at 28° C. for 3 days."}, "[2]": {"settings": "plant expressing PRN, seedlings at 3-5 true leaves, 4-5 weeks old"}},
  "data": [
    {"smiles": "O=[N+]([O-])c1c(Cl)cccc1-c1c[nH]cc1Cl", "note": "[PRN, 3-chloro-4-(2′-nitro-3′-chlorophenyl)-pyrrole]", "values": [
      {"measurement": "Dry weight", "setting": "[1]; [2]", "result": 3.6, "unit": "gr"},
      {"measurement": "Dry weight (% of fresh weight)", "setting": "[1]; [2]", "result": "42.7 % of fresh weight"},
      {"measurement": "Fresh weight", "setting": "[1]; [2]", "result": 9.2, "unit": "gr"},
      {"measurement": "Height", "setting": "[1]; [2]", "result": 11, "unit": "cm"},
      {"measurement": "Growth Enhancement (%), Dry weight", "setting": "[1]; relative to control plant", "result": 276.9, "unit": "%"},
      {"measurement": "Growth Enhancement (%), Dry weight (% of fresh weight)", "setting": "[1]; relative to control plant", "result": 159.9, "unit": "%"},
      {"measurement": "Growth Enhancement (%), Fresh weight", "setting": "[1]; relative to control plant", "result": 191.7, "unit": "%"},
      {"measurement": "Growth Enhancement (%), Height", "setting": "[1]; relative to control plant", "result": 134.1, "unit": "%"},
      {"measurement": "State of plants in R. solani-infested soil", "setting": "R. solani", "result": "remained healthy"},
      {"measurement": "Inhibition of growth of R. solani", "setting": "Rhizoctonia solani", "result": "inhibitory"}
    ]}
  ]
}
